Measurements taken from BigSolDB 2.1.

CCC(C)n1ncn(-c2ccc(N3CCN(c4ccc(OC[C@H]5CO[C@](Cn6cncn6)(c6ccc(Cl)cc6Cl)O5)cc4)CC3)cc2)c1=O (mixture of isomers)
solubility (mole fraction)
Conditions | 283.15 K | 288.15 K | 293.15 K | 298.15 K | 303.15 K | 308.15 K | 313.15 K | 318.15 K | 323.15 K
in DMSO | 0.000184 | 0.000237 | 0.000309 | 0.000391 | 0.000469 | 0.000579 | 0.000707 | 0.000888 | 0.00107
in ethanol | 6.88e-06 | 9.34e-06 | 1.26e-05 | 1.66e-05 | 2.16e-05 | 2.83e-05 | 3.73e-05 | 5.03e-05 | 6.36e-05
in isopropanol | 8.3e-06 | 1.04e-05 | 1.3e-05 | 1.57e-05 | 2.02e-05 | 2.48e-05 | 3.02e-05 | 3.65e-05 | 4.37e-05
in methanol | 1.64e-05 | 2.14e-05 | 2.81e-05 | 3.7e-05 | 4.9e-05 | 6.17e-05 | 7.78e-05 | 9.7e-05 | 0.00012
in water | 4.17e-09 | 6.55e-09 | 1.03e-08 | 1.55e-08 | 2.6e-08 | 3.69e-08 | 5.55e-08 | 8.36e-08 | 1.21e-07
